Test results: paper PMC12383145, “Fluorescent Peptides Internalize HeLa Cells and Kill Multidrug-Resistant Clinical Bacterial Isolates” (Antibiotics, 2025)
Where “and” joins values, the source holds several entries; their conditions need not be identical. Equal values may be shown once. Residues, ends and D or L forms follow the SMILES beside them. *: point of attachment. RhodamineB = CCN(CC)c1ccc2c(-c3ccccc3C(=O)*)c3ccc(=[N+](CC)CC)cc-3oc2c1

How the values were obtained:
Format in all cases: cell-based
[1] = tested on: E. coli ATCC 25922; details: ATCC 25922, 24 h
Procedure: (§1) The minimum inhibitory concentration (MIC) of the peptides was determined by the broth microdilution technique, according to the Clinical and Laboratory Standards Institute (CLSI) guidelines, as previously described. Briefly, bacterial strains were incubated in BHI broth at 37 °C until they reached the exponential growth phase, and inocula were adjusted to 5 × 10^6 CFU/mL using calibration curves. Serial dilutions of the peptides to be evaluated in 96-well plates were made in 90 µL of Mueller Hinton broth at concentrations ranging from 200 to 6.25 µg/mL, and 10 µL of the inoculum adjusted to 5 × 10^6 CFU/mL was added. Finally, the plates were incubated at 37 °C for 24 h, and the absorbance at 620 nm was read. As a negative control, CMH, distilled water, and 10 µL of inoculum were used; for the positive control, vancomycin was used for Gram-positive strains and ciprofloxacin for Gram-negative strains at the MICs dictated by the CLSI; as a technical control, CMH with peptone water was used, and for the growth control, CMH was used with 10 µL of inoculum.
(§2) To determine the minimum bactericidal concentration (MBC), the 96-well plates where the MIC was determined were used as a starting point. From these, an aliquot of the controls and those wells where no apparent bacterial growth was observed were spotted onto trypticase soy agar plates. The plates were incubated at 37 °C for 24 h, and the reading was taken, identifying the lowest concentration of the peptide where there was no bacterial growth as the MBC.

[2] = tested on: S. aureus ATCC 25923; details: ATCC 25923, 24 h
Procedure: as §1, §2

[3] = tested on: E. faecalis ATCC 29212; details: ATCC 29212, 24 h
Procedure: as §1, §2

[4] = tested on: K. pneumoniae ATCC 700603; details: ATCC 700603, 24 h
Procedure: as §1, §2

[5] = tested on: P. aeruginosa ATCC 27853; details: ATCC 27853, 24 h
Procedure: as §1, §2

[6] = Hemolysis assay
Procedure: (§3) Whole blood was collected into EDTA tubes and centrifuged at 2500 rpm for 10 min. The plasma and buffy coat were removed, and the erythrocytes were washed three times with 0.9% saline to yield a 4% cell suspension. In 96-well plates, 100 µL of peptide dilutions (6.25–200 µg/mL) were prepared in triplicate, and 100 µL of the erythrocyte suspension was added (final hematocrit 2%). Plates were incubated at 37 °C for 2 h, and then centrifuged again at 2500 rpm for 10 min. A 100 µL aliquot of the supernatant was transferred to a fresh plate, and absorbance was measured at 450 nm. Saline and 1× Triton X-100 served as the negative and positive controls, respectively. Hemolysis (%) was calculated as follows: %hemolysis=treatment absorbance−saline absorbance/1×triton absorbance−saline absorbance

[7] = tested on: erythrocytes; experiment: Hemolysis assay; details: 2 h
Procedure: as §3

[8] = tested on: HeLa cells; experiment: Micrographs of cell morphology after peptide treatment; details: 100 µg/mL, 2 h, 37 °C
Description: Despite these pronounced morphological alterations, there was no evidence of cell rupture, membrane disintegration, or the presence of cell fragments, indicating the absence of necrotic processes. […] Green arrows indicate normal morphologies, such as cytoplasmic elongations and polygonal shapes. Red arrows indicate morphological changes induced by the peptides, including cell rounding, shrinkage, and loss of cytoplasmic projections. Scale bar: µm. The control corresponds to untreated cells.

[9] = tested on: MCF-7 cells; experiment: MTT cytotoxicity assay in MCF-7 cells; details: 200 µg/mL, 2 h
Procedure: An MTT assay was performed in MCF-7 cells with FAM-1 (FAM-RWQWRWQWR) and RhB-1 (RhB-RWQWRWQWR) peptides following a 2 h treatment.

[10] = MTT cytotoxicity assay in HeLa cells
[11] = tested on: S. aureus clinical isolate 11719; details: clinical isolate 11719, 24 h
[12] = tested on: E. coli clinical isolate 129797 (resistant); details: clinical isolate 129797 (resistant, 24 h)
Procedure: (§4) E. coli isolates 1004 (susceptible), 129797 (resistant), and 301755 (MDR) were selected for evaluation. Isolate 1004 was sensitive to all antibiotics tested. […] These findings identify it as a multidrug-resistant (MDR) strain and an extended-spectrum beta-lactamase (ESBL)-producing bacterium. For S. aureus, isolates 109095, 117719, and 124653 were evaluated. All three were resistant to penicillin, indicating beta-lactamase production mediated by the blaZ gene. Studies have shown that up to 90% of S. aureus isolates worldwide are penicillin-resistant, which implies that this antibiotic is ineffective in infections caused by this pathogen. […] Isolate 124653 was resistant to penicillin, tetracycline, and erythromycin, with the latter belonging to the group of macrolides, antibiotics that inhibit protein synthesis through interaction with the 50S […] subunit. For E. faecalis three isolates were selected: strains 213 (sensitive to all the antibiotics tested), strain 82 (resistant to streptomycin), and strain 179 (resistant to gentamicin). These clinical isolates were selected to assess the antimicrobial activity of the peptide RWQWRWQWR and its analogues conjugated to fluorescent molecules in strains against strains with susceptibility profiles.
(§5) The analysis of synthesized peptides in ATCC reference strains and susceptible, resistant, and multidrug-resistant (MDR) clinical isolates was performed. The clinical isolates were obtained from the National Cancer Institute collection and were previously identified and antibiogrammed using the VITEK system. Additionally, the strains were characterized by MALDI-TOF. The strains were re-primed onto trypticase soy agar and subsequently preserved in Brain–Heart Infusion (BHI) broth containing 20% glycerol. For the MIC and MBC assays, the strains were reactivated and cultured in BHI until they reached their exponential growth phase.
as §1, §2

[13] = tested on: E. coli clinical isolate 1004 (susceptible); details: clinical isolate 1004 (susceptible, 24 h)
Procedure: as §4, §5, §1, §2

Question: What does the source list for `CCN(CC)c1ccc2c(-c3ccccc3C(=O)N[C@@H](CCCNC(=N)N)C(=O)N[C@@H](Cc3c[nH]c4ccccc34)C(=O)N[C@@H](CCC(N)=O)C(=O)N[C@@H](Cc3c[nH]c4ccccc34)C(=O)N[C@@H](CCCNC(=N)N)C(=O)N[C@@H](Cc3c[nH]c4ccccc34)C(=O)N[C@@H](CCC(N)=O)C(=O)N[C@@H](Cc3c[nH]c4ccccc34)C(=O)N[C@@H](CCCNC(=N)N)C(N)=O)c3ccc(=[N+](CC)CC)cc-3oc2c1` [RhB-1, RhB-RWQWRWQWR] (RhodamineB-RWQWRWQWR-NH2)?
Answer: Minimal bactericidal concentration (MBC) [1]: > 105 µM; Minimal inhibitory concentration (MIC) [1]: > 105 µM; Minimal bactericidal concentration (MBC) [2]: 52 µM; Minimal inhibitory concentration (MIC) [2]: 26 µM; Minimal bactericidal concentration (MBC) [3]: 52 µM; Minimal inhibitory concentration (MIC) [3]: 52 µM; Minimal bactericidal concentration (MBC) [4]: > 105 µM; Minimal inhibitory concentration (MIC) [4]: > 105 µM; Minimal bactericidal concentration (MBC) [5]: > 105 µM; Minimal inhibitory concentration (MIC) [5]: > 105 µM; selectivity ratio [6]: 0.2; hemolysis ([6]; Percentage of hemolysis): 19%; Therapeutic index [7]: 0.5; morphological changes [8]: appeared smaller, rounded, and contained vacuoles; cell population remaining [9]: 8%; IC50 [10]: 117 µg/mL and 61 µM; Minimal bactericidal concentration (MBC) [11]: 105 µM; Minimal inhibitory concentration (MIC) [11]: 52 µM; Minimal bactericidal concentration (MBC) [12]: > 105 µM; Minimal inhibitory concentration (MIC) [12]: > 105 µM; Minimal bactericidal concentration (MBC) [13]: > 105 µM; Minimal inhibitory concentration (MIC) [13]: > 105 µM
